Here are results for six compounds from patent US12350350B2, “Hyperpolarisation in aqueous media via sabre” (UNIVERSITY OF YORK, priority 2017, dated 2025).

A short description of series [1]: Solubility in water and organic solvent (stated). The conditions noted are these: for solubility in organic solvent: CD3Cl or CD2Cl2.
Series [2] in a line: UV monitoring of pz transfer from aqueous phase into chloroform, with and without NaCl. Type of series: physicochemical. The conditions noted are these: H2O layered over equivalent volume of CHCl3. As for the experimental part:
Relative rates of pz transfer from the aqueous phase into chloroform were assessed, with, and without NaCl, by UV monitoring as detailed in Figure S100. This involved layering a sample of H2O containing pyrazine over an equivalent volume of CHCl3 that contained no pz.

Series [3] can be described thus: UV-vis quality control: catalyst in the aqueous phase after phase separation. Type of series: physicochemical. To be noted: UV spectrum 10 seconds after mixing, no signal seen. As for the experimental part: A UV spectrum was recorded to monitor the amount of catalyst present in the aqueous phase 10 seconds after mixing. As detailed in Figure S98 no signal is seen which places an upper limit of 1.5×10^−6 mol dm^−3 on the iridium concentration based on [Ir(H)2(IMes)(pz)3]Cl. The sample used mimicked that of 5.1.

As for `[2H]c1cc([2H])c(C(=O)OC)cn1` [d2-methylnicotinate], in series [1], the “solubility in water / D2O” value is “partially soluble in D2O phase” and the “solubility in organic solvent” value is reported as “fully soluble in CD3Cl phase”. Regarding `Fc1cccnc1` [3-fluoropyridine], the “solubility in organic solvent” value in series [1] was “highly soluble in organic solvent”. For the compound `[2H]c1cc([2H])c(C(N)=O)cn1` [d2-nicotinamide], in series [1], the “solubility in water / D2O” value was “full water soluble” and the “solubility in organic solvent” value is “partially soluble in organic solvent”. Turning to `c1cnccn1` [pyrazine], in series [2], the “rate of transfer between the phases, effect of NaCl” value is recorded as “increase the rate of pz transfer between the phases”; the “relative partitioning between aqueous phase and chloroform, effect of NaCl” value is listed as “unaffected by added NaCl”.

On to [Ir(H)2(IMes)(pz)3]Cl, for which the “upper limit on iridium concentration in the aqueous phase” value in series [3] is ≤ 1.5×10^−6 mol dm^−3. In the case of `Nc1ccncc1` [4-aminopyridine], the “solubility in water / D2O” value in series [1] is recorded as “fully water soluble”.
